In patent US20150335657A1, “Methods for Modulating Sirtuin Enzymes” (The Trustees of Princeton University, priority 2014, published 2015):

Experiments:
SIRT6 = target: T1, SIRT6 (Homo sapiens, UniProt Q8N6T7); experiment: Sirtuin deacetylase enzyme activity assay (Cayman Chemical), compound screen; format: biochemical; details: compound at 50 μM; Z-score of change in fluorescent signal; + increase, − decrease
T1 construct: purchased Cayman Chemical
From the text: (§1) Sirtuins have been identified as innate viral restriction factors and it has been previously shown that drugs that modulate the activity of these enzymes block the production of multiple viruses in culture (see, e.g., WO 2012/106509). Sirtuins are NAD-dependent enzymes that regulate the activity of target proteins by post-translational modifications and thereby control key cellular events (see, e.g., Haigis and Sinclair (2010) Ann Rev Pathol Mech Dis 5:253-95). SIRT1, SIRT2, SIRT3 and SIRT6 have shown a detectable deacetylase activity in well-established biochemical assays that utilize recombinant SIRT1, SIRT2, SIRT3, and SIRT6 enzymes and fluorophore-conjugated acetyl-peptides. As described in the Examples below, the deacetylase activity of these sirtuins were used as a surrogate to identify compounds having broad-range antiviral activity.
(§2) A publically disclosed, small molecule library consisting of approximately 13,000 compounds was screened using a commercially available (Cayman Chemical) enzyme activity assay. Deacetylase activity of sirtuins SIRT1, SIRT2, SIRT3, and SIRT6 was used as a surrogate to identify compounds with the potential for having broad-range antiviral activity. The compounds were tested at a single concentration (50 μM) in microtiter plates and their activity against the four sirtuins was recorded as a change in fluorescent signal intensity. […] Activation of sirtuin activity generated positive Z-scores and inhibition of sirtuin activity produced negative Z-scores.

SIRT2 = target: T2, SIRT2 (Homo sapiens, UniProt Q8IXJ6); experiment: as above; format: biochemical; details: compound at 50 μM; Z-score of change in fluorescent signal; + increase, − decrease
T2 construct: purchased Cayman Chemical
T2 sequence (Q8IXJ6 1-389): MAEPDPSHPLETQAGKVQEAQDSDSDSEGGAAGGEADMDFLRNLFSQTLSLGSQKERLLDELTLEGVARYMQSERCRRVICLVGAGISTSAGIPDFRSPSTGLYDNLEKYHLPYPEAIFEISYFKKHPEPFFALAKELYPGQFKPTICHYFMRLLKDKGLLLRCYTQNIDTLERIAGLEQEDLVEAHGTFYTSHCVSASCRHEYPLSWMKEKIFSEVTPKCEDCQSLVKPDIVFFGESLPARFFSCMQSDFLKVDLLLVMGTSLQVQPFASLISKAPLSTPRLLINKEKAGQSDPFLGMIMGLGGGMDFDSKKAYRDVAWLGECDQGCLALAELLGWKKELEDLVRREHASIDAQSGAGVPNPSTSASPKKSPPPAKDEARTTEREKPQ
From the text: as §1, §2

SIRT1 = target: T3, SIRT1 (Homo sapiens, UniProt Q96EB6); experiment: as above; format: biochemical; details: compound at 50 μM; Z-score of change in fluorescent signal; + increase, − decrease
T3 construct: purchased Cayman Chemical
T3 sequence (Q96EB6 1-747): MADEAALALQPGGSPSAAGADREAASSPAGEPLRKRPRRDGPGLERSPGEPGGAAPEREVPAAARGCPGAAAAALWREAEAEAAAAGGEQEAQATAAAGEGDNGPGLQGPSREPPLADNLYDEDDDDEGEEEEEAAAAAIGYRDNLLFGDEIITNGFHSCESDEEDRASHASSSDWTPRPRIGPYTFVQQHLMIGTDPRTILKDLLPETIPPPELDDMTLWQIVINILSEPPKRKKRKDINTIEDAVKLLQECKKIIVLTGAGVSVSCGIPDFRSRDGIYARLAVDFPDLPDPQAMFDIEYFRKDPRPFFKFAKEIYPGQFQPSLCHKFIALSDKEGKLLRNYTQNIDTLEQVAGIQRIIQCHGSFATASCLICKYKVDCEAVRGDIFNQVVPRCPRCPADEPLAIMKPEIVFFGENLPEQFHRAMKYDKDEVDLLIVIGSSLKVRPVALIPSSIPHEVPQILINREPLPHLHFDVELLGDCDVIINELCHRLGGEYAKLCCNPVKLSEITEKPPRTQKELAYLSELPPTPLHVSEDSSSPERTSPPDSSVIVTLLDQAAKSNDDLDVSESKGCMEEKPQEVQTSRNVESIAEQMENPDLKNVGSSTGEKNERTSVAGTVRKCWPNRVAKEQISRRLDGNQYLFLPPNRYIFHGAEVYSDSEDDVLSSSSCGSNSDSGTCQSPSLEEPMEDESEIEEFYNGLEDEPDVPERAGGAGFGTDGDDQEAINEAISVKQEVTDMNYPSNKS
From the text: as §1, §2

SIRT3 = target: T4, SIRT3 (Homo sapiens, UniProt Q9NTG7); experiment: as above; format: biochemical; details: compound at 50 μM; Z-score of change in fluorescent signal; + increase, − decrease
T4 construct: purchased Cayman Chemical
T4 sequence (Q9NTG7 1-399): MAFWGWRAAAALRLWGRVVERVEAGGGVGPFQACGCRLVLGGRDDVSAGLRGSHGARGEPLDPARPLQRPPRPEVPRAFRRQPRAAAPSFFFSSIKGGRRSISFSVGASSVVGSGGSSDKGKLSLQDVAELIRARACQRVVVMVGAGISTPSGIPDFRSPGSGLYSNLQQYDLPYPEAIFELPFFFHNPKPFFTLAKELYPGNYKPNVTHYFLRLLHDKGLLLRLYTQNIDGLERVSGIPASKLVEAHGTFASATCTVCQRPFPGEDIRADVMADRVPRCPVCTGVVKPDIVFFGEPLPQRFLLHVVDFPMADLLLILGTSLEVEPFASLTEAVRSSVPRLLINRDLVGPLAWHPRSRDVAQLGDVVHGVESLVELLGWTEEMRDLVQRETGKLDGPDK
From the text: as §1, §2

[1] = Tetrazolium-based cell viability assay (cytotoxicity); details: human
[2] = system: human cytomegalovirus (HCMV) AD169 strain; experiment: Antiviral activity against HCMV in MRC5 fibroblasts (virus yield, fluorescent focus assay); format: cell-based; details: Human betaherpesvirus 5, HCMV AD169, 1 infectious unit/cell, treated 2 h after infection, virus in medium at 96 h

T1 sequence (Q8N6T7 whole entry): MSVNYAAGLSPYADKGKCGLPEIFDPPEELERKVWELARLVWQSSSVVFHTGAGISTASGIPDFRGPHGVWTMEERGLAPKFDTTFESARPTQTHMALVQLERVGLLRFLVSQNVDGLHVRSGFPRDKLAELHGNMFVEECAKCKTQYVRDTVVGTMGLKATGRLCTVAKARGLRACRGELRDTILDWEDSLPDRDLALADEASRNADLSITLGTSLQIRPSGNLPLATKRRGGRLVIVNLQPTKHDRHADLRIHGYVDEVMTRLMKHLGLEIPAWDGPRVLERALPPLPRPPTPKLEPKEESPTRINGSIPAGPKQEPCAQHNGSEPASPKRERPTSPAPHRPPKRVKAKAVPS

| SMILES | SIRT6 (change in sirtuin deacetylase activity, Z-score class) (SIRT6) | SIRT2 (change in sirtuin deacetylase activity, Z-score class) (SIRT2) | SIRT1 (change in sirtuin deacetylase activity, Z-score class) (SIRT1) | SIRT3 (change in sirtuin deacetylase activity, Z-score class) (SIRT3) | CC50 at 96 h [1] [µM] | IC50 [2] [µM] | IC90 [2] [µM] |
| --- | --- | --- | --- | --- | --- | --- | --- |
| Cc1nn(C2CN(CCn3ccnc3)C(=O)C2c2ccccc2)c(C)c1C (centres unmarked) | na (−2 ≦ Z-score < 2 = no activity (na)) | −−− (Z-score ≦ −3 = −−−) | −−− (Z-score ≦ −3 = −−−) | −−− (Z-score ≦ −3 = −−−) | > 50 | 11 | 38.5 |
| CCCN1CC(C(C)c2ccccc2OC)N(c2cccnc2)C1=O (centres unmarked) | +++ (Z-score ≧ 3 = +++) | na (−2 ≦ Z-score < 2 = no activity (na)) | na (−2 ≦ Z-score < 2 = no activity (na)) | na (−2 ≦ Z-score < 2 = no activity (na)) | > 50 | 9.91 | 32.2 |
| CCOc1cc(C)n(C(CNc2cnc3ccccc3c2)C(C)c2cccnc2C)n1 (centres unmarked) | +++ (Z-score ≧ 3 = +++) | ++ (2 ≦ Z-score < 3 = ++) | ++ (2 ≦ Z-score < 3 = ++) | +++ (Z-score ≧ 3 = +++) | > 50 | 8.26 | 33.9 |
| CCN1CC(C(C)c2ccc(C)nc2)Oc2ccc(C(F)(F)F)cc2C1=O (centres unmarked) | na (−2 ≦ Z-score < 2 = no activity (na)) | +++ (Z-score ≧ 3 = +++) | na (−2 ≦ Z-score < 2 = no activity (na)) | na (−2 ≦ Z-score < 2 = no activity (na)) | > 50 | 18.4 | 42.3 |
| COc1ccccc1C(C)C(F)CNc1cnc2ccccc2c1 (centres unmarked) | +++ (Z-score ≧ 3 = +++) | ++ (2 ≦ Z-score < 3 = ++) | +++ (Z-score ≧ 3 = +++) | na (−2 ≦ Z-score < 2 = no activity (na)) | > 50 | 1.19 | 2.24 |
| COc1cccc(CN2C(=O)c3cccnc3N(C)C2C(F)C(C)c2cnc3ccccc3c2)c1 (centres unmarked) | +++ (Z-score ≧ 3 = +++) | +++ (Z-score ≧ 3 = +++) | +++ (Z-score ≧ 3 = +++) | +++ (Z-score ≧ 3 = +++) | 25 to 50 | 1.54 | 15.5 |
| Cc1ccc(C(C)C(CN2CCN(C)CC2)Oc2cnccn2)cn1 (centres unmarked) | +++ (Z-score ≧ 3 = +++) | na (−2 ≦ Z-score < 2 = no activity (na)) | na (−2 ≦ Z-score < 2 = no activity (na)) | na (−2 ≦ Z-score < 2 = no activity (na)) | > 50 | 30.2 | 56 |
| CC(c1ccccc1F)C(O)CNc1ccc(O)nc1 (centres unmarked) | +++ (Z-score ≧ 3 = +++) | na (−2 ≦ Z-score < 2 = no activity (na)) | na (−2 ≦ Z-score < 2 = no activity (na)) | +++ (Z-score ≧ 3 = +++) | > 50 | 19.4 | 44 |
| Cc1cc(-c2ccccc2)nn1C1CN(Cc2cccc(C(F)(F)F)c2)C(=O)C1C(C)C (centres unmarked) | ++ (2 ≦ Z-score < 3 = ++) | na (−2 ≦ Z-score < 2 = no activity (na)) | ++ (2 ≦ Z-score < 3 = ++) | na (−2 ≦ Z-score < 2 = no activity (na)) | 25 to 50 | 8.43 | 18.8 |
| CC(c1ccncc1)C(O)Cn1cc(-c2cc(Cl)cnc2N)nn1 (centres unmarked) | +++ (Z-score ≧ 3 = +++) | na (−2 ≦ Z-score < 2 = no activity (na)) | +++ (Z-score ≧ 3 = +++) | ++ (2 ≦ Z-score < 3 = ++) | > 50 | 9.71 | 33.8 |
| CNC(=O)c1cccc(CN(CCC(C)C(C)C)S(=O)(=O)c2cn(C)cn2)c1 (centres unmarked) | na (−2 ≦ Z-score < 2 = no activity (na)) | ++ (2 ≦ Z-score < 3 = ++) | na (−2 ≦ Z-score < 2 = no activity (na)) | na (−2 ≦ Z-score < 2 = no activity (na)) | > 50 | 13.4 | 41.8 |
| CC(c1ccc(F)cc1)C(O)Cn1cc(-c2cc(Cl)cnc2N)nn1 (centres unmarked) | ++ (2 ≦ Z-score < 3 = ++) | na (−2 ≦ Z-score < 2 = no activity (na)) | +++ (Z-score ≧ 3 = +++) | na (−2 ≦ Z-score < 2 = no activity (na)) | > 50 | 15.1 | 35.6 |
| COc1cccc(C(C)C(O)Cn2cc(-c3cc(Cl)cnc3N)nn2)c1 (centres unmarked) | +++ (Z-score ≧ 3 = +++) | na (−2 ≦ Z-score < 2 = no activity (na)) | +++ (Z-score ≧ 3 = +++) | na (−2 ≦ Z-score < 2 = no activity (na)) | > 50 | 26.2 | 44.3 |
| CC(c1ccc2nccnc2c1)c1cnc(N2CCc3ccccc3C2)s1 (centres unmarked) | na (−2 ≦ Z-score < 2 = no activity (na)) | −− (−3 < Z-score ≦ −2 = −−) | −− (−3 < Z-score ≦ −2 = −−) | na (−2 ≦ Z-score < 2 = no activity (na)) | > 50 | 4.58 | 5.95 |
